Experimental data taken from ChEMBL document CHEMBL5058646 (2022).

What was measured:
[1] = biological target: Casein kinase I isoform delta (Homo sapiens) (UniProt P48730); assay: CSNK1D SGC Tm panel (DSF); settings: Compound concentration 20.0 uM
[2] = biological target: Serine/threonine-protein kinase ULK3 (Homo sapiens) (UniProt Q6PHR2); assay: ULK3 SGC Tm panel (DSF); settings: Compound concentration 20.0 uM
[3] = biological target: Myoneurin (Homo sapiens) (UniProt Q9NPC7); settings: SUD4, Compound concentration 1.0 uM
[4] = biological target: B-cell lymphoma 6 protein (Homo sapiens, UniProt P41182); settings: SUD4, Compound concentration 1.0 uM
[5] = biological target: Serine/threonine-protein kinase 10 (Homo sapiens) (UniProt O94804); assay: STK10 SGC Tm panel (DSF); settings: Compound concentration 20.0 uM
[6] = biological target: Mitogen-activated protein kinase 1 (Homo sapiens) (UniProt P28482); assay: MAPK1 SGC Tm panel (DSF); settings: Compound concentration 20.0 uM
Mitogen-activated protein kinase 1 (Homo sapiens), sequence (P28482 whole entry): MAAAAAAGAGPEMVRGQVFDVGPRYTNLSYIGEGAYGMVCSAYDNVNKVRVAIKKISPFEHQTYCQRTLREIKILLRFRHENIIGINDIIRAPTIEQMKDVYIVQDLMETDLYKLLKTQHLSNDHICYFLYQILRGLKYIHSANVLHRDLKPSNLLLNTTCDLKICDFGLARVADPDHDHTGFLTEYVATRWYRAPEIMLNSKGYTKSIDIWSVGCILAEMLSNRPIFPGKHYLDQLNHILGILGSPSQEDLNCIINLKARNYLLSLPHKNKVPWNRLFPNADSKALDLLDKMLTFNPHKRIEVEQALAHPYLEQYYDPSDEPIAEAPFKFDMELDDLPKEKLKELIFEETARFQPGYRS

[7] = biological target: MAP kinase-activated protein kinase 2 (Homo sapiens) (UniProt P49137); assay: MAPKAPK2 SGC Tm panel (DSF); settings: Compound concentration 20.0 uM
MAP kinase-activated protein kinase 2 (Homo sapiens), sequence (P49137 whole entry, looked up): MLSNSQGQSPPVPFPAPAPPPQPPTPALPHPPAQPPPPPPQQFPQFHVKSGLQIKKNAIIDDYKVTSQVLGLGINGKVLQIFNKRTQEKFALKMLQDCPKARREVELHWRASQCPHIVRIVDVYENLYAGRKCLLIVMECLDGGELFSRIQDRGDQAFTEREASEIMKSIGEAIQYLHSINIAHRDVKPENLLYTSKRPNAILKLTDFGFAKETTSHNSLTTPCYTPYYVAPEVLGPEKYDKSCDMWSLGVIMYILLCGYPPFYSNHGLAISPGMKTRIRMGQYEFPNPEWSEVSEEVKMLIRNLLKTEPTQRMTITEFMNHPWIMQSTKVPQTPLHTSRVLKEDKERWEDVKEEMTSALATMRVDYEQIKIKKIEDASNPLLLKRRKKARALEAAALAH

[8] = biological target: Tyrosine-protein kinase Mer (Homo sapiens) (UniProt Q12866); assay: MERTK SGC Tm panel (DSF); settings: Compound concentration 20.0 uM
[9] = biological target: Transcription regulator protein BACH2 (Homo sapiens) (UniProt Q9BYV9); settings: SUD4, Compound concentration 1.0 uM
Transcription regulator protein BACH2 (Homo sapiens), sequence (Q9BYV9 whole entry): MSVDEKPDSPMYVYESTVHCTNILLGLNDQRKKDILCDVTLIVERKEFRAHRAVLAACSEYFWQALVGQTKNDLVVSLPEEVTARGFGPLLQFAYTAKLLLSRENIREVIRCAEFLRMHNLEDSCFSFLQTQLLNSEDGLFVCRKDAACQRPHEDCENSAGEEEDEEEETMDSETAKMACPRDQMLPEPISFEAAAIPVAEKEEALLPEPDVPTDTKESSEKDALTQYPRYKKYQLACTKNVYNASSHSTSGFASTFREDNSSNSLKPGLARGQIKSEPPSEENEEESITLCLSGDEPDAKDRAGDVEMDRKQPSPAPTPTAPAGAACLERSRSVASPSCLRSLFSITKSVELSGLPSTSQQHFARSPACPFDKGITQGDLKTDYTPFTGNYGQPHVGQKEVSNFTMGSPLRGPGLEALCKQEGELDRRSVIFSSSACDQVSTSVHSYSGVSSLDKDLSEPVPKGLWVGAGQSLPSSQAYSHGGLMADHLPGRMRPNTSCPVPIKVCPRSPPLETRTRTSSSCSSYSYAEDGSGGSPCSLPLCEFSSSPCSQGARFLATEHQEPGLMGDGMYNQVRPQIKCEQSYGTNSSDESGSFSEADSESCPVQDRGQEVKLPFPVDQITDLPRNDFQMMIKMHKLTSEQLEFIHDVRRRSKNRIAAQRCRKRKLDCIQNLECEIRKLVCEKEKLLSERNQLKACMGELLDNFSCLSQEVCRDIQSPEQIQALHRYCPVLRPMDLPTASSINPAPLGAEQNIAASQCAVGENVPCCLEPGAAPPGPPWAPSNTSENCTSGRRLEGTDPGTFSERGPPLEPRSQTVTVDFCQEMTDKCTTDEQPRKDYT

[10] = biological target: T1, Zinc finger protein 131 (Homo sapiens) (UniProt P52739); settings: SUD4, Compound concentration 1.0 uM
T1 sequence (whole entry): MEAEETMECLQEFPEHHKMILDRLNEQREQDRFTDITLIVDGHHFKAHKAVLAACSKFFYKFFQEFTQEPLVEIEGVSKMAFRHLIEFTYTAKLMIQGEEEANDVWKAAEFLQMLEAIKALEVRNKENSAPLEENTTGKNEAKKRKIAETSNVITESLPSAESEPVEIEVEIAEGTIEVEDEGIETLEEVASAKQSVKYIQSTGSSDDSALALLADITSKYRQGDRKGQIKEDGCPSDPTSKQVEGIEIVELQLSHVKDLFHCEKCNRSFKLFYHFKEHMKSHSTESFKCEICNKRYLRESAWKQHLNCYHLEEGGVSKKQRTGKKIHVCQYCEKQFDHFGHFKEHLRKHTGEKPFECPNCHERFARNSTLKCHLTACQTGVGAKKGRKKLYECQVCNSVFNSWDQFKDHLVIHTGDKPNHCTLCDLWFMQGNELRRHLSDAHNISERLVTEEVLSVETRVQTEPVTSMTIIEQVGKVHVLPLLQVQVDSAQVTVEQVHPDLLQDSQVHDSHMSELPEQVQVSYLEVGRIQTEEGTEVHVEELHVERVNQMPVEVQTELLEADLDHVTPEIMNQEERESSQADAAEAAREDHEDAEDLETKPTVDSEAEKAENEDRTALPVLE

[11] = biological target: Serine/threonine-protein kinase PAK 1 (Homo sapiens) (UniProt Q13153); assay: PAK1 SGC Tm panel (DSF); settings: Compound concentration 20.0 uM
[12] = biological target: Calcium/calmodulin-dependent protein kinase kinase 2 (Homo sapiens) (UniProt Q96RR4); assay: CAMKK2 SGC Tm panel (DSF); settings: Compound concentration 20.0 uM
Calcium/calmodulin-dependent protein kinase kinase 2 (Homo sapiens), sequence (Q96RR4 2-588 limits assumed): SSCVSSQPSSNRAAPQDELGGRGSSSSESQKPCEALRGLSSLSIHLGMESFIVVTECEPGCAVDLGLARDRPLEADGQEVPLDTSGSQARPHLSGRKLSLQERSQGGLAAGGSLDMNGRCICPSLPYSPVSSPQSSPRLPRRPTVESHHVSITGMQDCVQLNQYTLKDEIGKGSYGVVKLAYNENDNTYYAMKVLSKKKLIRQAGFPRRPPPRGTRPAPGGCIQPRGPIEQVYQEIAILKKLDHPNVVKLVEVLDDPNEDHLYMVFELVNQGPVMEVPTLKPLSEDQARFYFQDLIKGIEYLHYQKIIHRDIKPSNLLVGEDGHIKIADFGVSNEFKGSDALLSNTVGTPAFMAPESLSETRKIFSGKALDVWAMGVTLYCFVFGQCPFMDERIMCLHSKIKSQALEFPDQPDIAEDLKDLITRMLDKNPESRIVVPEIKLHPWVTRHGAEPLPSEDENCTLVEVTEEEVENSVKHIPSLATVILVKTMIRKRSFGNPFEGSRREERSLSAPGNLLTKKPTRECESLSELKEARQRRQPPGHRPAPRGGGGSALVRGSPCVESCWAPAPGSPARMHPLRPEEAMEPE

[13] = biological target: Zinc finger and BTB domain-containing protein 7A (Homo sapiens) (UniProt O95365); settings: SUD4, Compound concentration 1.0 uM
Zinc finger and BTB domain-containing protein 7A (Homo sapiens), sequence (O95365 whole entry, the tested form may be a part): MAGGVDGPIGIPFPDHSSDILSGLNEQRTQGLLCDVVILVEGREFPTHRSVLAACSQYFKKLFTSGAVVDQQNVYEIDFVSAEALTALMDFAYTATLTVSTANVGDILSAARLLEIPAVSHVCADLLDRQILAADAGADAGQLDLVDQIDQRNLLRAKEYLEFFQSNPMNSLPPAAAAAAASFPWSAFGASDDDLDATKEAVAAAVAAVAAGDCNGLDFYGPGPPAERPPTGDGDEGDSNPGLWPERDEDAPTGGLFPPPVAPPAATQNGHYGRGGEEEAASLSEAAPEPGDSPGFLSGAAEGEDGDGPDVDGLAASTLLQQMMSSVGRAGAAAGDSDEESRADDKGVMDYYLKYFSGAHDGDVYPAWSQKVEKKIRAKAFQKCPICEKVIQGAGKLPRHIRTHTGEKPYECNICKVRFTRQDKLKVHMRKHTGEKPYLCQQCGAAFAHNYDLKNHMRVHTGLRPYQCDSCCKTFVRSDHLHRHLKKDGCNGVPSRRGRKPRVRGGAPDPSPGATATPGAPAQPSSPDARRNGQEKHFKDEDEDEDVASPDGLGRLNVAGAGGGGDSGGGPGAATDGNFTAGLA

[14] = biological target: Serine/threonine-protein kinase 3 (Homo sapiens) (UniProt Q13188); assay: STK3 SGC Tm panel (DSF); settings: Compound concentration 20.0 uM
[15] = biological target: Casein kinase II subunit alpha (Homo sapiens) (UniProt P68400); assay: CSNK2A1 SGC Tm panel (DSF); settings: Compound concentration 20.0 uM
Casein kinase II subunit alpha (Homo sapiens), sequence (P68400 whole entry, looked up): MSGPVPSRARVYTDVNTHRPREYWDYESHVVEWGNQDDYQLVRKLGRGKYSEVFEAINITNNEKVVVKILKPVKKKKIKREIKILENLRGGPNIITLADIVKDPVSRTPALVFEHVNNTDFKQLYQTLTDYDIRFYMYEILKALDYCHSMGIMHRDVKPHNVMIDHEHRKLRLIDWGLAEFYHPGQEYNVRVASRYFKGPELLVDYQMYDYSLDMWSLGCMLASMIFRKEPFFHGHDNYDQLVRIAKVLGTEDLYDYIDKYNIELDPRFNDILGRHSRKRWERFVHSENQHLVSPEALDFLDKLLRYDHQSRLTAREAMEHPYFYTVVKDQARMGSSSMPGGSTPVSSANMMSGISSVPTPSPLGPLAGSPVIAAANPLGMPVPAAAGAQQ

[16] = biological target: Alpha-1B adrenergic receptor (Homo sapiens) (UniProt P35368); settings: Compound concentration 10.0 uM
[17] = biological target: Muscarinic acetylcholine receptor M5 (Homo sapiens) (UniProt P08912); settings: Compound concentration 10.0 uM
Muscarinic acetylcholine receptor M5 (Homo sapiens), sequence (P08912 whole entry): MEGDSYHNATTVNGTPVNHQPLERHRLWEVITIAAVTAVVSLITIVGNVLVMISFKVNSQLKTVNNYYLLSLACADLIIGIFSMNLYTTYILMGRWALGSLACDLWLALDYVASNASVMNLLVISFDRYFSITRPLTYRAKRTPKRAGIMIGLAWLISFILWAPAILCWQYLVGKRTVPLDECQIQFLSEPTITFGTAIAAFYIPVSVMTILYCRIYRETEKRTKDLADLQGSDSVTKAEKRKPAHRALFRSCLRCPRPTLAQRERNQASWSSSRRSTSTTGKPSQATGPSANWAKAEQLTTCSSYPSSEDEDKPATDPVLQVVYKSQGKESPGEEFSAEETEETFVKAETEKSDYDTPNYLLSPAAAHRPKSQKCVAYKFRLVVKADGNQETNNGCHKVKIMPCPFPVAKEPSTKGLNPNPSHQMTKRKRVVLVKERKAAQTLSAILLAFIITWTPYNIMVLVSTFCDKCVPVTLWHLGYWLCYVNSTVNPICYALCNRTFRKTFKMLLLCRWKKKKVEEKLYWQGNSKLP

[18] = biological target: BMP-2-inducible protein kinase (Homo sapiens) (UniProt Q9NSY1); assay: BMP2K SGC Tm panel (DSF); settings: Compound concentration 20.0 uM
[19] = biological target: T2, Zinc finger and BTB domain-containing protein 44 (Homo sapiens) (UniProt Q8NCP5); settings: SUD4, Compound concentration 1.0 uM
T2 sequence (whole entry): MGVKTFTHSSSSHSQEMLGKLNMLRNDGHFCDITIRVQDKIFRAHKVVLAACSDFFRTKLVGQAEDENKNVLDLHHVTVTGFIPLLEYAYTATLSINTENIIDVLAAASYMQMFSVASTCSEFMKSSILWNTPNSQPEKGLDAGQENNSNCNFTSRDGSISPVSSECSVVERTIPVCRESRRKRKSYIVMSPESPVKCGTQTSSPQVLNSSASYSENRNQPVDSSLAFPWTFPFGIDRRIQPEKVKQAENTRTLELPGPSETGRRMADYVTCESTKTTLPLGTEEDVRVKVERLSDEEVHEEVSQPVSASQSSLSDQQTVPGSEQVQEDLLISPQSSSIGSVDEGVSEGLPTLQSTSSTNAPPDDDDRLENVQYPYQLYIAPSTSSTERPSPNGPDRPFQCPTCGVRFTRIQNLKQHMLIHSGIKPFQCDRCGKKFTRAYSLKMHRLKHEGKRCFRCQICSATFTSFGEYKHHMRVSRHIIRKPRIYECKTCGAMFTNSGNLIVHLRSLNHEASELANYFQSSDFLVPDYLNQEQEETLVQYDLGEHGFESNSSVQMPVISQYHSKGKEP

[20] = biological target: T3, Zinc finger and BTB domain-containing protein 9 (Homo sapiens) (UniProt Q96C00); settings: OCI-Ly1, Compound concentration 1.0 uM
T3 sequence (whole entry): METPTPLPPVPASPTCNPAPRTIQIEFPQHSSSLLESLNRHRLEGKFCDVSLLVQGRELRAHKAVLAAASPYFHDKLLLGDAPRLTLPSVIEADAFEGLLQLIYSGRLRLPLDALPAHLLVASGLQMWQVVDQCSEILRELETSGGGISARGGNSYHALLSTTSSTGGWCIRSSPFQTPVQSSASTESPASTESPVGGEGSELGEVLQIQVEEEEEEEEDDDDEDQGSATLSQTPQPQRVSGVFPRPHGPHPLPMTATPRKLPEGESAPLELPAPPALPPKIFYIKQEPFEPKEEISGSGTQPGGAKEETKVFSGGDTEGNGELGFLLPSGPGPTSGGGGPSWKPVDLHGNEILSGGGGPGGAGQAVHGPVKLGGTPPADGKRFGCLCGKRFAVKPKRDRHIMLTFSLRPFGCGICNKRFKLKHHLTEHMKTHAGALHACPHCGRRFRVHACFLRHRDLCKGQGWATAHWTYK

[21] = biological target: Dual specificity protein kinase TTK (Homo sapiens) (UniProt P33981); assay: TTK SGC Tm panel (DSF); settings: Compound concentration 20.0 uM
Dual specificity protein kinase TTK (Homo sapiens), sequence (P33981 whole entry): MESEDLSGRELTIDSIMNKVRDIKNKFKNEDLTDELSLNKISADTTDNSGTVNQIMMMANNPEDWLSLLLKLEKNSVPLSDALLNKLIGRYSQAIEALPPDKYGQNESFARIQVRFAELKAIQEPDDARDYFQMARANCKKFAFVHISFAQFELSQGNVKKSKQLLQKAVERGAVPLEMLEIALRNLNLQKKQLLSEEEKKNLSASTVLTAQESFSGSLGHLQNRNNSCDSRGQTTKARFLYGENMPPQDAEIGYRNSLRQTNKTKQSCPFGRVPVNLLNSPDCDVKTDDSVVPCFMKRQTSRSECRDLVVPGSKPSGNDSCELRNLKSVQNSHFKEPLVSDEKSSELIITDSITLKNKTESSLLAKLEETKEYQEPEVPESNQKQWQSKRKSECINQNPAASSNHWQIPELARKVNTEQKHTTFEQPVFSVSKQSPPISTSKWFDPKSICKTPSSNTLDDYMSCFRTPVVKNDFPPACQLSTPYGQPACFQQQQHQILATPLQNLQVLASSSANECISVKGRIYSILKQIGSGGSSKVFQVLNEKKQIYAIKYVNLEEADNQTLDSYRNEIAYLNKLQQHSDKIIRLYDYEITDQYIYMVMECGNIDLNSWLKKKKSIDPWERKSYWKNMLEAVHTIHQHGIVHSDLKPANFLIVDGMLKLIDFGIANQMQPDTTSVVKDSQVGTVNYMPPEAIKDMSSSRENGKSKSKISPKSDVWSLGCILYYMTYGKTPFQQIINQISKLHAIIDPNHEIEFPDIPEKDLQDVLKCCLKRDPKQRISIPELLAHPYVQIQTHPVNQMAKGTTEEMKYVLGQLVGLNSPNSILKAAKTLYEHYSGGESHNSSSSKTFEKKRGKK

[22] = biological target: D(1A) dopamine receptor (Homo sapiens) (UniProt P21728); settings: Compound concentration 10.0 uM
D(1A) dopamine receptor (Homo sapiens), sequence (P21728 whole entry, the tested form may be a part): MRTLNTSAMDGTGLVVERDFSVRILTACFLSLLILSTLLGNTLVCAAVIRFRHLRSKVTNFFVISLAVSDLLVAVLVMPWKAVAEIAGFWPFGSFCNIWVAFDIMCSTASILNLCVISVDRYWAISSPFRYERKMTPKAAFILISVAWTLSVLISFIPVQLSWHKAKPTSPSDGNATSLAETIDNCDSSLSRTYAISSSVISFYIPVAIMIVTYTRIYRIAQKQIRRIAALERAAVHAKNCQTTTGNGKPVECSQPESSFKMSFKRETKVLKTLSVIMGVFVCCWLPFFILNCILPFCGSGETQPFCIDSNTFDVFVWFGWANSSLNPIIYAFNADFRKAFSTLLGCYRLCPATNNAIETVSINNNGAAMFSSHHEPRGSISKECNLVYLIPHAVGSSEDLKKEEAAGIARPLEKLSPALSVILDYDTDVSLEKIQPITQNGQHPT

[23] = biological target: Zinc finger and BTB domain-containing protein 17 (Homo sapiens) (UniProt Q13105); settings: SUD4, Compound concentration 1.0 uM

**Q.** With C[C@@H]1CN(c2ncc(Cl)c(Nc3ccc4c(c3)n(CCC(C)(C)O)c(=O)n4C)n2)C[C@H](C)C1(F)F as the compound, how does the Tm [1] read?
**A.** Its Tm is 52 °C.

**Q.** And the Tm [2]?
**A.** Its Tm is 44 °C.

**Q.** What about the LogFC [3] of the same compound?
**A.** The LogFC was -0.189.

**Q.** And the LogFC [4]?
**A.** Its LogFC is -1.13.

**Q.** What about the Tm [5] of the same compound?
**A.** Its Tm is 42 °C.

**Q.** What about the Tm [6] of the same compound?
**A.** Its Tm is 56 °C.

**Q.** And the Tm [7]?
**A.** The Tm was 46 °C.

**Q.** What about the Tm [8] of the same compound?
**A.** The Tm was 47 °C.

**Q.** And the LogFC [9]?
**A.** Its LogFC is -0.0358.

**Q.** And the LogFC [10]?
**A.** Its LogFC is 0.111.

**Q.** What about the Tm [11] of the same compound?
**A.** The Tm was 46 °C.

**Q.** What about the Tm [12] of the same compound?
**A.** Its Tm is 38 °C.

**Q.** What about the LogFC [13] of the same compound?
**A.** The LogFC was -0.0678.

**Q.** And the Tm [14]?
**A.** The Tm was 47 °C.

**Q.** What about the Tm [15] of the same compound?
**A.** The Tm was 44 °C.

**Q.** And the inhibition [16]?
**A.** Its inhibition is 12.4%.

**Q.** And the inhibition [17]?
**A.** Its inhibition is 20.6%.

**Q.** And the Tm [18]?
**A.** Its Tm is 43 °C.

**Q.** What about the LogFC [19] of the same compound?
**A.** Its LogFC is -0.235.

**Q.** What about the LogFC [20] of the same compound?
**A.** Its LogFC is -0.0251.

**Q.** And the Tm [21]?
**A.** The Tm was 46 °C.

**Q.** What about the inhibition [22] of the same compound?
**A.** Its inhibition is 27.3%.

**Q.** And the LogFC [23]?
**A.** The LogFC was -0.0472.
